Laboratory results from article PMC10589655 (Proceedings of the National Academy of Sciences of the …, 2023).
Read-outs that look alike come from different tables or passages of the source.

Tests used:
R8 = biological target: T1, R8 (Azospirillum baldaniorum, UniProt A0A9P1JTZ6); test: ITC; details: one binding site model
T1 sequence (A0A9P1JTZ6 19-310): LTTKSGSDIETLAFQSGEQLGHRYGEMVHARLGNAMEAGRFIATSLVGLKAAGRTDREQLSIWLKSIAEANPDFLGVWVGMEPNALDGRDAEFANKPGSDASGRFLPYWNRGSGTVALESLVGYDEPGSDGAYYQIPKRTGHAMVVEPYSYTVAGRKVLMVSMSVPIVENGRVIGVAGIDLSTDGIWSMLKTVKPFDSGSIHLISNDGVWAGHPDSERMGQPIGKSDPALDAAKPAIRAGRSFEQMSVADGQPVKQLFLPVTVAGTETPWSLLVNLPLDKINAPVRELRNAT

R5 = biological target: T2, R5 (Williamwhitmania taraxaci, UniProt A0A1G6J2J7); test: ITC; format: binding
T2 sequence (A0A1G6J2J7 34-316 limits assumed): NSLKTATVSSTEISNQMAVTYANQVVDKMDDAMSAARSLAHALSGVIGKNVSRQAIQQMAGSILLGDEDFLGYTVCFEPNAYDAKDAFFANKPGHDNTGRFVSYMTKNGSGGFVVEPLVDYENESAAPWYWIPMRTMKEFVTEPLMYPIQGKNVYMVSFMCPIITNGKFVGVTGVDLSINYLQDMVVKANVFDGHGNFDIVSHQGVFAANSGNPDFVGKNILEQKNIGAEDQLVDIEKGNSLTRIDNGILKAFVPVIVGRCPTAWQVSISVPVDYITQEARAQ

R1 = biological target: T3, R1 (Methanosarcina mazei, UniProt Q8PSW1); test: ITC; format: binding
T3 sequence (Q8PSW1 32-312): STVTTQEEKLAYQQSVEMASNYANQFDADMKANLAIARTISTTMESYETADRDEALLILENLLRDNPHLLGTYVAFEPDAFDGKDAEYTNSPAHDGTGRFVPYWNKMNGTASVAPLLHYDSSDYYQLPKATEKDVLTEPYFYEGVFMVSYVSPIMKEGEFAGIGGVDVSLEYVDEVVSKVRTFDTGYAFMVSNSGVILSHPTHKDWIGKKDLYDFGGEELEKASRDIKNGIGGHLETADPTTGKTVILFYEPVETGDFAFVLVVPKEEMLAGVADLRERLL

R7 = biological target: T4, R7 (Peptoclostridium litorale, UniProt A0A069RI07); test: ITC; format: binding
T4 sequence (A0A069RI07 38-318 limits assumed): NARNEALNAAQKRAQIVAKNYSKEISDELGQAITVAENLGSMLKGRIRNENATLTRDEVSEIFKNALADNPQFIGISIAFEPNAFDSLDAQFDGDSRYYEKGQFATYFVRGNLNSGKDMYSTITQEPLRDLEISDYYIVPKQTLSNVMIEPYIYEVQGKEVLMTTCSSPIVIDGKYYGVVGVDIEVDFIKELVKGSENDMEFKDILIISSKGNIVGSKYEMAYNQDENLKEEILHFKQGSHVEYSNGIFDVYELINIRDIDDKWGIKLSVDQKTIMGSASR

R3 = test: ITC; set-up: species or system Desulfovibrio inopinatus; details: read-out: KD (uM) / Polyamine / Ethylenediamine; one binding site model
R6 = R6 (Oleiharenicola lentus, UniProt A0A4Q1C8G9); test: biochemical
PacA-LBD = PacA-LBD (Pectobacterium atrosepticum, UniProt Q6D515); test: biochemical
Chain of PacA-LBD (Q6D515 1-271): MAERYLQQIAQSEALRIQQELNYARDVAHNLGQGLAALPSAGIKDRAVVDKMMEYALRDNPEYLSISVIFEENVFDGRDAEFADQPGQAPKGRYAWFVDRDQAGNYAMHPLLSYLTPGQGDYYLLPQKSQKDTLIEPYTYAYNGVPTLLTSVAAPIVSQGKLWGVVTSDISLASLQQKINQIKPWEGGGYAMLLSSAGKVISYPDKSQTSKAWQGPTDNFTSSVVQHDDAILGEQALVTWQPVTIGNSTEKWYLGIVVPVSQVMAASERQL

Chain of R6 (A0A4Q1C8G9 35-324 limits assumed): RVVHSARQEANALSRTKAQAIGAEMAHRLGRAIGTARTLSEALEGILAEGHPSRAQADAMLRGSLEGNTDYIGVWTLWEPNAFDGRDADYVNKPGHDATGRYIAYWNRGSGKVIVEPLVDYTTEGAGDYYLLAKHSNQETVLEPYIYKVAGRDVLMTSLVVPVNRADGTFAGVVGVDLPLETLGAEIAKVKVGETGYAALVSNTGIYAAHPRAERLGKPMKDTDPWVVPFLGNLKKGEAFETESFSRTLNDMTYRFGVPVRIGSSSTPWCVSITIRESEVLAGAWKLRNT

Compound	Kd (R5)	Kd (R1)	Kd (R7)	other results
C[N+](C)(C)CCO [Choline]	3600 ± 100 nM	–	–	Kd (R8; read-out: KD (uM) / Quaternary amines / Choline): 183 ± 4 µM
CNC [Dimethylamine]	–	0.53 ± 0.02 µM	5.3 ± 0.4 µM	Kd (R8; read-out: KD (uM) / Methyl-/ethyl-/ethanol amines^* / Dimethylamine): 5.8 ± 1 µM
NCCN [Ethylenediamine]	–	–	12.3 ± 1 µM	Kd (R3): 29.6 ± 3 µM
CN [Methylamine]	–	35.1 ± 3 µM	16.6 ± 2 µM	Kd (R8; read-out: KD (uM) / Methyl-/ethyl-/ethanol amines^* / Methylamine): 25.1 ± 3 µM
CN(C)C [Trimethylamine]	1200 ± 100 nM	10 ± 0.4 µM	–	Kd (R8; read-out: KD (uM) / Methyl-/ethyl-/ethanol amines^* / Trimethylamine): 24 ± 4 µM; Kd (R6): 151 ± 4 µM; Kd (PacA-LBD): 113 ± 6 µM
